Results taken from patent EP4722212A1, “NOVEL COMPOUND FOR INHIBITING PROTEIN KINASES AND PHARMACEUTICAL COMPOSITION COMPRISING SAME” (Magicbullettherapeutics Co., Ltd., priority 2023, dated 2024).
Where two headings read alike, the source gives them in different places.

Legend:
Assay in all cases: Kinase panel
Assay type in all cases: biochemical
[1] = molecular target: CDK2/CYCLIN E (Homo sapiens, UniProt P24941); conditions: read-out: residual enzyme activity
Summary of the method: (§1)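 Kinase profiling used a full biochemical panel. Test compound concentration: 1 µM, single point. Output: calculated residual activity, with kinases at or under 40% reported.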

[2] = molecular target: CK1A1L (Homo sapiens, UniProt Q8N752); conditions: read-out: residual enzyme activity
Summary of the method: as §1

[3] = molecular target: MAPKAPKS/PRAK (Homo sapiens, UniProt Q8IW41); conditions: read-out: residual enzyme activity
Summary of the method: as §1

[4] = molecular target: PLK4/SAK (Homo sapiens, UniProt O00444); conditions: read-out: residual enzyme activity
Summary of the method: as §1

[5] = molecular target: ALK6/BMPR1B (Homo sapiens, UniProt O00238); conditions: read-out: residual enzyme activity
Summary of the method: as §1

[6] = molecular target: DAPK1 (Homo sapiens, UniProt P53355); conditions: DAPK1, 1 µM; read-out: residual enzyme activity
Summary of the method: as §1

[7] = molecular target: MEK3 (Homo sapiens, UniProt P46734); conditions: MEK3, 1 µM; read-out: residual enzyme activity
Summary of the method: as §1

[8] = molecular target: LIMK1 (Homo sapiens, UniProt P53667); conditions: LIMK1, 1 µM; read-out: residual enzyme activity
Summary of the method: as §1

[9] = molecular target: TIE2/TEK (Homo sapiens, UniProt Q02763); conditions: read-out: residual enzyme activity
Summary of the method: as §1

[10] = molecular target: NIM1 (Homo sapiens, UniProt Q8IY84); conditions: NIM1, 1 µM; read-out: residual enzyme activity
Summary of the method: as §1

[11] = molecular target: CDK3/CYCLIN E2 (Homo sapiens, UniProt Q00526); conditions: CDK3/cyclin E2, 1 µM; read-out: residual enzyme activity
Summary of the method: as §1

[12] = molecular target: CDK5/P35 (Homo sapiens, UniProt Q00535); conditions: read-out: residual enzyme activity
Summary of the method: as §1

[13] = molecular target: TSSK2 (Homo sapiens, UniProt Q96PF2); conditions: TSSK2, 1 µM; read-out: residual enzyme activity
Summary of the method: as §1

[14] = molecular target: CDK17/CYCLIN Y (PCTK2) (Homo sapiens, UniProt Q00537); conditions: read-out: residual enzyme activity
Summary of the method: as §1

[15] = molecular target: RIPK4 (Homo sapiens, UniProt P57078); conditions: RIPK4, 1 µM; read-out: residual enzyme activity
Summary of the method: as §1

[16] = molecular target: PAK1 (Homo sapiens, UniProt Q13153); conditions: PAK1, 1 µM; read-out: residual enzyme activity
Summary of the method: as §1

[17] = molecular target: EPHB1 (Homo sapiens, UniProt P54762); conditions: EPHB1, 1 µM; read-out: residual enzyme activity
Summary of the method: as §1

[18] = molecular target: IRAK1 (Homo sapiens, UniProt P51617); conditions: IRAK1, 1 µM; read-out: residual enzyme activity
Summary of the method: as §1

[19] = molecular target: RSK2 (Homo sapiens, UniProt P51812); conditions: RSK2, 1 µM; read-out: residual enzyme activity
Summary of the method: as §1

[20] = molecular target: ROCK1 (Homo sapiens, UniProt Q13464); conditions: ROCK1, 1 µM; read-out: residual enzyme activity
Summary of the method: as §1

[21] = molecular target: PKCA (Homo sapiens, UniProt P17252); conditions: read-out: residual enzyme activity
Summary of the method: as §1

[22] = molecular target: MLCK2/MYLK2 (Homo sapiens, UniProt Q9H1R3); conditions: MLCK2/MYLK2, 1 µM; read-out: residual enzyme activity
Summary of the method: as §1

[23] = molecular target: MKK4 (Homo sapiens, UniProt P45985); conditions: MKK4, 1 µM; read-out: residual enzyme activity
Summary of the method: as §1

[24] = molecular target: JAK3 (Homo sapiens, UniProt P52333); conditions: JAK3, 1 µM; read-out: residual enzyme activity
Summary of the method: as §1

[25] = molecular target: PAK4 (Homo sapiens, UniProt O96013); conditions: PAK4, 1 µM; read-out: residual enzyme activity
Summary of the method: as §1

[26] = molecular target: ALK5/TGFBR1 (Homo sapiens, UniProt P36897); conditions: ALK5/TGFBR1, 1 µM; read-out: residual enzyme activity
Summary of the method: as §1

[27] = molecular target: MAPKAPK3 (Homo sapiens, UniProt Q16644); conditions: MAPKAPK3, 1 µM; read-out: residual enzyme activity
Summary of the method: as §1

[28] = molecular target: BLK (Homo sapiens, UniProt P51451); conditions: read-out: residual enzyme activity
Summary of the method: as §1

[29] = molecular target: TYK1/LTK (Homo sapiens, UniProt P29376); conditions: read-out: residual enzyme activity
Summary of the method: as §1

[30] = molecular target: CK1G1 (Homo sapiens, UniProt Q9HCP0); conditions: read-out: residual enzyme activity
Summary of the method: as §1

[31] = molecular target: FLT3 (Homo sapiens, UniProt P36888); conditions: FLT3, 1 µM; read-out: residual enzyme activity
Summary of the method: as §1

[32] = molecular target: TXK (Homo sapiens, UniProt P42681); conditions: read-out: residual enzyme activity
Summary of the method: as §1

[33] = molecular target: CAMK2G (Homo sapiens, UniProt Q13555); conditions: read-out: residual enzyme activity
Summary of the method: as §1

[34] = molecular target: SRPK1 (Homo sapiens, UniProt Q96SB4); conditions: SRPK1, 1 µM; read-out: residual enzyme activity
Summary of the method: as §1

TSSK2, sequence (Q96PF2 whole entry, species assumed): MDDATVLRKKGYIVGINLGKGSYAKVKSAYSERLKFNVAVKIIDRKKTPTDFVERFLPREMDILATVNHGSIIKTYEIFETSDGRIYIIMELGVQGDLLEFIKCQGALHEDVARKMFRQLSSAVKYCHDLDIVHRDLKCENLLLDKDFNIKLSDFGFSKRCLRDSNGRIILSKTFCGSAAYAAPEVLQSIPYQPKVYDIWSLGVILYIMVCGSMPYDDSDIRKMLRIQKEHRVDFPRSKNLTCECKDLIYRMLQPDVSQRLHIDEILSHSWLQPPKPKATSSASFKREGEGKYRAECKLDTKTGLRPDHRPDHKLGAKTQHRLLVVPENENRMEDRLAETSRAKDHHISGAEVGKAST
PAK1, sequence (Q13153 whole entry): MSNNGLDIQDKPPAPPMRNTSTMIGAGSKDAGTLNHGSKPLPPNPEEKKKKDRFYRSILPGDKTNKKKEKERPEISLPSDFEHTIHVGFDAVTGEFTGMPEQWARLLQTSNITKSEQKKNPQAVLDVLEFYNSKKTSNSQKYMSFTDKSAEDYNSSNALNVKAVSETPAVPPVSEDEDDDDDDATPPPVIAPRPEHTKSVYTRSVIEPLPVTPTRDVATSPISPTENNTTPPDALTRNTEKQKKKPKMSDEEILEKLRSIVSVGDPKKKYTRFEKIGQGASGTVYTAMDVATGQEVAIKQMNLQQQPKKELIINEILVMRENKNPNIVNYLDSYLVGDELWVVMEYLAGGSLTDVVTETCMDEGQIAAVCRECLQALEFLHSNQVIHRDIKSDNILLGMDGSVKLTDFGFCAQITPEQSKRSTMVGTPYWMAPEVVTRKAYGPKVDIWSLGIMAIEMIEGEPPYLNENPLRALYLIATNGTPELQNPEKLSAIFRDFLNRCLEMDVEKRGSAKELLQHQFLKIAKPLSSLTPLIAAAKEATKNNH
CK1A1L, sequence (Q8N752 whole entry): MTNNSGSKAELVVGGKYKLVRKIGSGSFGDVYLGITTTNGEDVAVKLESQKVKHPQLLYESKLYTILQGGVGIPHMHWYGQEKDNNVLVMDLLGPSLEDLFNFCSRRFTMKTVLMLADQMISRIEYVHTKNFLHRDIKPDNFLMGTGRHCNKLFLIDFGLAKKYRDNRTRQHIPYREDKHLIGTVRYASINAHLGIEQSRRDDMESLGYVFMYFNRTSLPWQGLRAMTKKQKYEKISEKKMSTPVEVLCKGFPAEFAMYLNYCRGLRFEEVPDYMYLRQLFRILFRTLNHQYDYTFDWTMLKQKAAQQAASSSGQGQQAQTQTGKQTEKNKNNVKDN
TIE2/TEK, sequence (Q02763 23-1124): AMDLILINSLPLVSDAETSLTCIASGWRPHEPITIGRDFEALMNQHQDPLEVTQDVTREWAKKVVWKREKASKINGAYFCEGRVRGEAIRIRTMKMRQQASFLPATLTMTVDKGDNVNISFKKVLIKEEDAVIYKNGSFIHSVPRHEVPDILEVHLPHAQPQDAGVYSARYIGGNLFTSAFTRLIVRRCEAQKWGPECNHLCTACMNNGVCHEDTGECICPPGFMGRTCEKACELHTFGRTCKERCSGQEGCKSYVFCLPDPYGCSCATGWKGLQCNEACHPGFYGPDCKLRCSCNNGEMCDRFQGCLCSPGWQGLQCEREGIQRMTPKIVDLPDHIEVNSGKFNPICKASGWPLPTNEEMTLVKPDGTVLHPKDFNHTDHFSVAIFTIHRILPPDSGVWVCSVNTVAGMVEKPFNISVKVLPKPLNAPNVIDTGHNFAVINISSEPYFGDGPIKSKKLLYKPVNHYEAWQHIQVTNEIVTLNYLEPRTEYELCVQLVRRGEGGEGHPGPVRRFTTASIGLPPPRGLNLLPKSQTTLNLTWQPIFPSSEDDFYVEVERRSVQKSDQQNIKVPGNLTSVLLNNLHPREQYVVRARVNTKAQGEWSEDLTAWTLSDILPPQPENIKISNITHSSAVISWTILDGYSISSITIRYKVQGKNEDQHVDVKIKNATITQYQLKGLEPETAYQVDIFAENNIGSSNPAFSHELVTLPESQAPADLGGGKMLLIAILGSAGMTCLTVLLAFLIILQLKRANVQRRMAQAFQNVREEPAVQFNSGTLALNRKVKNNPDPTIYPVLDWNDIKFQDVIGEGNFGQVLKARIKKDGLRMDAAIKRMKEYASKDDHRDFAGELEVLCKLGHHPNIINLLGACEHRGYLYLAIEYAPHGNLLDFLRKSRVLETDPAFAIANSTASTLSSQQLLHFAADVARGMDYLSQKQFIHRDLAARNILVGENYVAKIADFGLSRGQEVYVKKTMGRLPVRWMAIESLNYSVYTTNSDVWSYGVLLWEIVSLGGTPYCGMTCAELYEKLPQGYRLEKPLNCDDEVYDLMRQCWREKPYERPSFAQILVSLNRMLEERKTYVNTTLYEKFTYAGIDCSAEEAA
CDK5/P35, sequence (Q00535 whole entry, species assumed): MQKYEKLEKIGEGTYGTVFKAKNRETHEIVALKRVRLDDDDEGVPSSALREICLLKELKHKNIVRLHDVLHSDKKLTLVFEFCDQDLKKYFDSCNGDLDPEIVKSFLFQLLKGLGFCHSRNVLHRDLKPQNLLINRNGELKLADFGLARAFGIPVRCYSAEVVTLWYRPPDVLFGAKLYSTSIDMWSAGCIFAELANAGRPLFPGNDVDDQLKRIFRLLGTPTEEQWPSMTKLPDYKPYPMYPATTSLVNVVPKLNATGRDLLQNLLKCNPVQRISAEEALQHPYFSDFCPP
CDK5/P35, sequence (Q15078 2-307 partner limits assumed, species assumed): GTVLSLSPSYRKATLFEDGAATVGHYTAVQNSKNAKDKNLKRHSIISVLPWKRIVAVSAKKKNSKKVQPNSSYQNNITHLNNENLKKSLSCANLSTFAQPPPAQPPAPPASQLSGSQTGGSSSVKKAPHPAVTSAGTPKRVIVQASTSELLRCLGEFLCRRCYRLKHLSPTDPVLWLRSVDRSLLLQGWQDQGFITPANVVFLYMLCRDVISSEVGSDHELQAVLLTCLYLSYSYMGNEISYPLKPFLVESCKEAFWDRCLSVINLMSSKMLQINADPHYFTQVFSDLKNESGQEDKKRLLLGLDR
PAK4, sequence (O96013 whole entry, species assumed): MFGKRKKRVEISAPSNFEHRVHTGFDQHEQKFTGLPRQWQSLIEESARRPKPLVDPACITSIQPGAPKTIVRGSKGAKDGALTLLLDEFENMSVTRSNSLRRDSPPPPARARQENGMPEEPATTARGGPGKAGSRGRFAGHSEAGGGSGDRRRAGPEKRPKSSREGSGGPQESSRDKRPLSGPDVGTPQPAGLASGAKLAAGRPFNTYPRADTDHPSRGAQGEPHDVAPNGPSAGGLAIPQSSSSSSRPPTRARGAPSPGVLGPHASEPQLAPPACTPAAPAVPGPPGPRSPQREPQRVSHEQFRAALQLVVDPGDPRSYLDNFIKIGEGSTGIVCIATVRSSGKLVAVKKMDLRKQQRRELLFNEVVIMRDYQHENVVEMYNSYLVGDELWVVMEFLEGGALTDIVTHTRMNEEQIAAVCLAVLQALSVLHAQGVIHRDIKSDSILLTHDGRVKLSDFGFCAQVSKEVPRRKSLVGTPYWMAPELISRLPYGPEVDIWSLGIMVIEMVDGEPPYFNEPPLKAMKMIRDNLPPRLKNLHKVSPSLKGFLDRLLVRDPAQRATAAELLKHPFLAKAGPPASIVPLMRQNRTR
CK1G1, sequence (Q9HCP0 whole entry): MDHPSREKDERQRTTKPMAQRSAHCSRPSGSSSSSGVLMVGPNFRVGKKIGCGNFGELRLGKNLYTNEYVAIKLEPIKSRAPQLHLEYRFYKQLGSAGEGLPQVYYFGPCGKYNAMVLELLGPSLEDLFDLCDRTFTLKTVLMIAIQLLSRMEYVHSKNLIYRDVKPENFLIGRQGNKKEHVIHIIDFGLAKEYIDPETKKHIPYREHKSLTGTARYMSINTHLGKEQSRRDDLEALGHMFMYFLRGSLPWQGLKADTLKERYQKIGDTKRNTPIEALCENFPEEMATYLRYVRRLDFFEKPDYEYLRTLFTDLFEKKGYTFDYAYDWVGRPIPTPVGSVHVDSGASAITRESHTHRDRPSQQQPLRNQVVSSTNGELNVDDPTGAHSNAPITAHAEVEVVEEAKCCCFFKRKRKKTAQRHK
MEK3, sequence (P46734 whole entry, species assumed): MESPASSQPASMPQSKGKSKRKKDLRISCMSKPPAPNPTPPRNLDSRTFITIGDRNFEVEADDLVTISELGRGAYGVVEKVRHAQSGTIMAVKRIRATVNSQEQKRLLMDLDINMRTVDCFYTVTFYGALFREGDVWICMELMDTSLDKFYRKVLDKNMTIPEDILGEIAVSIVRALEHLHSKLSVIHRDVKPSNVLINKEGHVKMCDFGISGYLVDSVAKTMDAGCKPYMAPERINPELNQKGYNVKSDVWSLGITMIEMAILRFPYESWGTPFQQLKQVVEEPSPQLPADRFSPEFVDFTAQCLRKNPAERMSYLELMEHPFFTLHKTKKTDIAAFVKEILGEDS

Compound | remaining activity at 1 µM [1] [%] | remaining activity at 1 µM [3] [%] | remaining activity at 1 µM [4] [%] | remaining activity at 1 µM [5] [%] | remaining activity at 1 µM [6] [%] | remaining activity at 1 µM [7] [%] | remaining activity at 1 µM [8] [%] | remaining activity at 1 µM [9] [%] | remaining activity at 1 µM [10] [%] | remaining activity at 1 µM [11] [%] | remaining activity at 1 µM [13] [%] | remaining activity at 1 µM [14] [%] | remaining activity at 1 µM [15] [%] | remaining activity at 1 µM [16] [%] | remaining activity at 1 µM [17] [%] | remaining activity at 1 µM [18] [%] | remaining activity at 1 µM [19] [%] | remaining activity at 1 µM [20] [%] | remaining activity at 1 µM [21] [%] | remaining activity at 1 µM [22] [%] | also measured
Cc1ccc(Nc2ncc3c(n2)C2(CC2)C(=O)N(c2cc(NC(=O)c4cccc(C(F)(F)F)c4)ccc2C)C3)cn1 [Compound 51, N-(4-methyl-3-(2'-((6-methylpyridin-3-yl)amino)-7'-oxo-5'H-spiro[cyclopropane-1,8'-pyrido[4,3-d]pyrimidine]-6'(7'H)-yl)phenyl)-3-(trifluoromethyl)benzamide] | > 40 | > 40 | > 40 | > 40 | > 40 | > 40 | ≤ 40 | ≤ 40 | > 40 | > 40 | > 40 | > 40 | > 40 | > 40 | ≤ 40 | > 40 | > 40 | > 40 | > 40 | ≤ 40 | remaining activity at 1 µM ([2]; CKlalL): > 40%; remaining activity at 1 µM ([12]; CDK5/p35, 1 µM): > 40%; remaining activity at 1 µM [23]: > 40%; remaining activity at 1 µM [24]: ≤ 40%; remaining activity at 1 µM [25]: > 40%; remaining activity at 1 µM [26]: > 40%; remaining activity at 1 µM [27]: > 40%; remaining activity at 1 µM [28]: ≤ 40%; remaining activity at 1 µM [29]: > 40%; remaining activity at 1 µM ([30]; CK1g1, 1 µM): > 40%; remaining activity at 1 µM [31]: ≤ 40%; remaining activity at 1 µM [32]: ≤ 40%; remaining activity at 1 µM ([33]; CAMK2g): > 40%; remaining activity at 1 µM [34]: > 40%
Cc1cn(-c2cc(C(=O)Nc3ccc(C)c(N4Cc5cnc(NC6CC6)nc5C5(CC5)C4=O)c3)cc(C(F)(F)F)c2)cn1 [Compound 8, N-(3-(2'-(cyclopropylamino)-7'-oxo-5'H-spiro[cyclopropane-1,8'-pyrido[4,3-d]pyrimidine]-6'(7'H)-yl)-4-methylphenyl)-3-(4-methyl-1H-imidazol-1-yl)-5-(trifluoromethyl)benzamide] | > 40 | > 40 | > 40 | > 40 | > 40 | > 40 | ≤ 40 | ≤ 40 | > 40 | > 40 | > 40 | > 40 | > 40 | > 40 | ≤ 40 | > 40 | > 40 | > 40 | > 40 | ≤ 40 | remaining activity at 1 µM ([2]; CK1A1L): > 40%; remaining activity at 1 µM ([12]; CDK5/P35, 1 µM): > 40%; remaining activity at 1 µM [23]: > 40%; remaining activity at 1 µM [24]: ≤ 40%; remaining activity at 1 µM [25]: > 40%; remaining activity at 1 µM [26]: > 40%; remaining activity at 1 µM [27]: > 40%; remaining activity at 1 µM [28]: ≤ 40%; remaining activity at 1 µM [29]: ≤ 40%; remaining activity at 1 µM ([30]; CK1G1, 1 µM): > 40%; remaining activity at 1 µM [31]: ≤ 40%; remaining activity at 1 µM [32]: ≤ 40%; remaining activity at 1 µM ([33]; CAMK2G): > 40%; remaining activity at 1 µM [34]: > 40%
